Experimental data: ChEMBL document CHEMBL5370600, “Oxindole and Benzoxazinone Alkaloids from the Seeds of Persea americana (Avocado) and Their SIRT1 Stimulatory Activity” (J Nat Prod, 2023)
Activity calls are given as the source filed them. The rule behind the calls is not given here.

Tests used:
HEK293 = assay: Cytotoxicity against HEK293 cells at 20 uM incubated for 24 hrs by MTT assay; type: toxicity, cell-based; conditions: human, hek293, 24 h
[1] = molecular target: T1, NAD-dependent protein deacetylase sirtuin-1 (Homo sapiens) (UniProt Q96EB6); assay: Activation of SIRT1 deacetylation (unknown origin) in flag tagged Sirt1 overexpressed HEK293 cells assessed as increase in NAD+/NADH ratio incubated for 12 hrs by fluorescence microplate reader analysis; type: cell-based; conditions: filed as activator, dose 10-20 µM
T1 sequence (whole entry): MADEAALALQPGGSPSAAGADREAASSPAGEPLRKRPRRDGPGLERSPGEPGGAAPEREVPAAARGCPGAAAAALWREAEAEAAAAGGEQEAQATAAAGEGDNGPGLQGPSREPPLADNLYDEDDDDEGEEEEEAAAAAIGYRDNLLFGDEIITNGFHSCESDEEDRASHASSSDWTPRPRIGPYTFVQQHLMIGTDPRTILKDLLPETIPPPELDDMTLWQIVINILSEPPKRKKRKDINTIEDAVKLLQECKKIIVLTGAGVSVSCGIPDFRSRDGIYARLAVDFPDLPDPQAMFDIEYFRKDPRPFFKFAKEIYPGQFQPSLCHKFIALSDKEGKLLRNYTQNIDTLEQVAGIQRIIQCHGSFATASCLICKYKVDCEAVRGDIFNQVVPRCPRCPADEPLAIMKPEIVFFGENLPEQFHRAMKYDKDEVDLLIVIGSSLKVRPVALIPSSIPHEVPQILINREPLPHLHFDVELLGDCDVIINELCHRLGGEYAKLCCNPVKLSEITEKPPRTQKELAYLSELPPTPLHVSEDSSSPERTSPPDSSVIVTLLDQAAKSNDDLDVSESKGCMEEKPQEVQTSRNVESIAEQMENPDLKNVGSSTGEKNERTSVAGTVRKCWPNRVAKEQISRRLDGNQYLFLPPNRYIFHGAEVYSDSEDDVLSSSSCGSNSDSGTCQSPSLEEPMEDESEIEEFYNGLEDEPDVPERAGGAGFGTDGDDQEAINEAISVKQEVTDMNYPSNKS

[2] = molecular target: T1, NAD-dependent protein deacetylase sirtuin-1 (Homo sapiens); assay: Activation of SIRT1 deacetylation (unknown origin) transfected in HEK293 cells cotransfected with PG13-Luc/myc-tagged p53/flag-tagged Sirt1/RSV-beta-galactosidase assessed as decrease in luciferase activity at 10 uM incubated for 24 hrs by firefly luciferase assay; type: cell-based
[3] = molecular target: T1, NAD-dependent protein deacetylase sirtuin-1 (Homo sapiens); assay: Activation of SIRT1 deacetylation (unknown origin) transfected in HEK293 cells cotransfected with PG13-Luc/myc-tagged p53/flag-tagged Sirt1/RSV-beta-galactosidase assessed as decrease in luciferase activity at 20 uM incubated for 24 hrs by firefly luciferase assay relative to control; type: cell-based; set-up: scale not given: the % may be the effect or the level left; conditions: filed as activator
[4] = molecular target: T1, NAD-dependent protein deacetylase sirtuin-1 (Homo sapiens); assay: Activation of SIRT1 deacetylation (unknown origin) transfected in HEK293 cells cotransfected with PG13-Luc/myc-tagged p53/flag-tagged Sirt1/RSV-beta-galactosidase assessed as decrease in luciferase activity incubated for 24 hrs by firefly luciferase assay; type: cell-based; conditions: filed as activator, dose 10-20 µM

| SMILES | Activity (HEK293) | other results |
| --- | --- | --- |
| O=C(C[C@]1(O)C(=O)Nc2ccccc21)OC[C@H]1O[C@@H](OCCc2ccc(O)cc2)[C@H](O)[C@@H](O)[C@@H]1O | Non-Toxic |  |
| O=C(C[C@H]1C(=O)Nc2ccccc21)OC[C@H]1O[C@@H](OCCc2ccc(O)c(O)c2)[C@H](O)[C@@H](O)[C@@H]1O | Non-Toxic |  |
| O=C(C[C@@]1(O)C(=O)Nc2ccccc21)OC[C@H]1O[C@@H](OCCc2ccc(O)cc2)[C@H](O)[C@@H](O)[C@@H]1O | Non-Toxic |  |
| O=C(C[C@@H]1C(=O)Nc2ccccc21)OC[C@H]1O[C@@H](OCCc2ccc(O)cc2)[C@H](O)[C@@H](O)[C@@H]1O | Non-Toxic | Activity [1]: Dose-Dependent Effect; Activity ([2]; filed as activator): Active; Activity [3]: 45%; Activity [4]: Dose-Dependent Effect |
| CC1=CC[C@@H](C(C)(C)O[C@@H]2O[C@H](CO)[C@@H](O)[C@H](O)[C@H]2O)CC1 | Non-Toxic |  |
| O=C(/C=C1/C(=O)Nc2ccccc21)OC[C@H]1O[C@@H](OCCc2ccc(O)cc2)[C@H](O)[C@@H](O)[C@@H]1O | Non-Toxic |  |
| O=C(C[C@@H]1C(=O)Nc2ccccc21)OC[C@H]1O[C@@H](OCCc2ccc(O)c(O)c2)[C@H](O)[C@@H](O)[C@@H]1O | Non-Toxic |  |
| CO[C@]1(CC(=O)OC[C@H]2O[C@@H](OCCc3ccc(O)cc3)[C@H](O)[C@@H](O)[C@@H]2O)OC(=O)Nc2ccccc21 | Non-Toxic |  |
| OC[C@@H](O)[C@@H](O)[C@H](O)[C@H](O)[C@@H](O)CO | Non-Toxic |  |
| O=C(C[C@H]1C(=O)Nc2ccccc21)OC[C@H]1O[C@@H](OCCc2ccc(O)cc2)[C@H](O)[C@@H](O)[C@@H]1O | Non-Toxic | Activity [2]: inactive; Activity [3]: 65% |
| CO[C@@]1(CC(=O)OC[C@H]2O[C@@H](OCCc3ccc(O)cc3)[C@H](O)[C@@H](O)[C@@H]2O)OC(=O)Nc2ccccc21 | Non-Toxic |  |
